Changes are numbered by the printed parent chain. Like-named read-outs stand apart in the source and are kept apart here.
Columns and labels:
[1] = Metabolism test of drugs: plasma pharmacokinetics after intravenous and intragastric administration; format: in vivo; conditions: SD rats; for CL_obs / AUC(0-inf) / AUC(0-t) / half-life / MRT / Vd / Cmax / Tmax: plasma; for F: PO 10 mg/kg vs IV 2 mg/kg; for AUC(0-inf) / AUC(0-t) / half-life / MRT / Vd / Cmax / Tmax: male, rat; for MRT: read-out: MRTINF_ obs; for Vd: read-out: Vss
Experimental: Four small molecule compounds of BLU-667, compound C2, compound C4 and compound C8 were administered to SD rats by intravenous and intragastric administration respectively. Blood samples were collected at different time points to determine the concentration of drugs in plasma after administration and calculate the related pharmacokinetics parameters.
The vehicle of BLU-667, C2, C4 and C8 was 10% NMP+49% PEG400+1% Tween80+40% Water. The specific preparation method was as follows: proper amount of tested samples was weighed, dissolved in 10% NMP+49% PEG400+1% Tween80+40% Water, mixed well by vortex for later use.
LC-MS/MS was used by the analysis department of the experimental organization to detect and analyze the prepared solution of sample for test.
Healthy male SD rats were used in this research. Animal weight: 150-200 g. All animals fasted before administration, and resumed feeding 4 hours after administration.
Time points for blood collection were: • Intravenous administration (groups 1, 3 and 5): 0.0833, 0.25, 0.5, 1, 2, 4, 8, 12 and 24 hours after administration. (±2 min at time point ≤2 hr, ±15 min at other points.) • Oral administration: (groups 2, 4, 6 and 7): 0.25, 0.5, 1, 2, 4, 8, 12 and 24 hours after administration. (±2 m at time point […] at other points.)
About 0.1 mL of blood was collected from each animal through jugular vein every time, and EDTA or heparin sodium was used as anticoagulant. Blood samples were collected and placed on ice, and plasma was separated by centrifugation (centrifugation conditions: 5000 r/min, 6 min, 4° C.).
LC-MS/MS was used by the analysis department of the experimental organization to analyze the plasma samples of rats.
According to the data of blood drug concentration of the drug, the pharmacokinetic parameters AUC0→t, AUC0→∞, MRT0→∞, CMax, TMax, Vss, F, CL and T1/2 as well as their mean and standard deviation of the samples for test were calculated respectively by pharmacokinetic calculation software WinNonlin non-compartment model.
The main pharmacokinetic parameters of BLU-667, compound C2, compound C4 and compound C8 in plasma after intravenous and single oral administration of BLU-667, compound C2, compound C4 and compound C8 in SD rats were shown in Table 3

[2] = system: tumor patients with RET fusion and mutation; conditions: Phase I, cited from earlier work
[3] = biological target: T1, Ba/F3-KIF5B-RET-V804M cells (Homo sapiens, UniProt P07949, V804M); assay: Cell anti-proliferation experiment (CellTiter-Glo), Ba/F3-KIF5B-RET-V804M; format: cell-based; conditions: cell viability, 72 h
T1 construct: host or cells: Ba/F3 (BaF3 from RIKEN BRC CELL BANK); the other entry of the earlier key: KIF5B (P33176, Kinesin-1 heavy chain)
T1 sequence (P07949 713-1063 V804M limits assumed): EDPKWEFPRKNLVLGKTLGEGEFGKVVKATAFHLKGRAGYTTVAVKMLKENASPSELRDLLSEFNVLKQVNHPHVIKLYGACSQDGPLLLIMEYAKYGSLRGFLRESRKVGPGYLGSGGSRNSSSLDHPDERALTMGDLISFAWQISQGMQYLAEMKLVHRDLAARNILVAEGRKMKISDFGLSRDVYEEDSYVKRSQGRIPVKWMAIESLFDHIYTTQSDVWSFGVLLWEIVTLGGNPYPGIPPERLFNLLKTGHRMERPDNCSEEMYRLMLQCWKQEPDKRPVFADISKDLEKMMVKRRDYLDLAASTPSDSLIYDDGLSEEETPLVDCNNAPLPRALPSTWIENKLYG
Experimental: (§1) Ba/F3-KIF5B-RET, Ba/F3-KIF5B-RET-V804L and Ba/F3-KIF5B-RET-V804M cells were constructed by PreceDo Pharmaceuticals Co., Ltd.
(§2) Ba/F3-KIF5B-RET, Ba/F3-KIF5B-RET-V804L and Ba/F3-KIF5B-RET-V804M medium: RPMI-1640+10% FBS+1% P/S.
(§3) A 1000× solution of the compound was prepared with DMSO, the compound was diluted to 20 times final concentration with a growth medium, and […] was added.
(§4) The suspended cells were rotated downward, resuscitated in the growth medium, and then counted with a cell counter. The cell suspension was diluted to the desired concentration in the growth medium. 95p L cell suspension was fed to a 96-well plate. 5 μL of 20× compound was added to the […], and the final DMSO concentration per well was 0.1%; incubated at 37° C. with 5% CO2 for 72 h
(§5) The plate was equilibrated to room temperature before measurement, 50 μl of CellTiter-Glo® reagent was added into each well, mixed on a shaker for 2 minutes, incubated at room temperature for 10 minutes, and recorded with Paradigm.
(§6) Cell viability was analyzed using Graphpad 7.0 software according to the formula Cell viability (CV %)=(RLU compound−RLU blank)/(RLU control−RLU blank)*100%, and the corresponding IC50 data were calculated as shown in Table 2

[4] = biological target: wild-type RET kinase (Homo sapiens, UniProt P07949); assay: Enzyme activity test against wild-type RET kinase (33P-ATP filter-binding kinase activity assay); format: biochemical; conditions: ATP Km concentration, 10 concentrations
Experimental: A biological activity test experiment was conducted below for some compounds of the above Examples and Comparative Example.
[…]. The biological activity screening of the compounds will be determined repeatedly at 10 concentrations.
Each sample was prepared into a solution with a concentration of 10 mM.
The test compound was dissolved in 100% dimethyl sulfoxide to a specific concentration. Integra Viaflo Assist was used to assist DMSO for (continuous) dilution.
Kinase was added to the newly prepared basic reaction buffer
Adding any desired cofactors to the substrate solution.
Adding wild-type RET kinase into the substrate solution and gently mixing;
Acoustic technology (Echo 550; Nanoliter range) was used to feed the compounds in 100% of dimethyl sulfoxide into the kinase reaction mixture and incubated at room temperature for 20 minutes.
33P-ATP (specific activity 10 Ci/l) was added to the reaction mixture to start the reaction.
Incubated at room temperature for 2 hours
Radioactivity was detected by filter-binding method.
Kinase activity data was expressed as the percentage of remaining kinase activity in the test sample compared to the vehicle (dimethyl sulfoxide) reaction. Prism (GRAPHPAD software) was used to obtain IC50 value and curve-fitting.

[5] = biological target: T2, Ba/F3-KIF5B-RET-V804L cells (Homo sapiens, UniProt P07949, V804L); assay: Cell anti-proliferation experiment (CellTiter-Glo), Ba/F3-KIF5B-RET-V804L; format: cell-based; conditions: cell viability, 72 h
T2 construct: host or cells: Ba/F3 (BaF3 from RIKEN BRC CELL BANK); the other entry of the earlier key: KIF5B (P33176, Kinesin-1 heavy chain)
T2 sequence (P07949 713-1063 V804L limits assumed): T1 sequence (P07949 713-1063 V804M limits assumed) with M92L
Experimental: as §1, §2, §3, §4, §5, §6

[6] = biological target: T3, Ba/F3-KIF5B-RET cells (Homo sapiens, UniProt P07949); assay: Cell anti-proliferation experiment (CellTiter-Glo), Ba/F3-KIF5B-RET; format: cell-based; conditions: cell viability, 72 h
T3 construct: host or cells: Ba/F3 (BaF3 from RIKEN BRC CELL BANK); the other entry of the earlier key: KIF5B (P33176, Kinesin-1 heavy chain)
T3 sequence (P07949 713-1063 limits assumed): T1 sequence (P07949 713-1063 V804M limits assumed) with M92V
Experimental: as §1, §2, §3, §4, §5, §6

[7] = PO, versus control compound (BLU-667)

Sequence of wild-type RET kinase (P07949 29-1114): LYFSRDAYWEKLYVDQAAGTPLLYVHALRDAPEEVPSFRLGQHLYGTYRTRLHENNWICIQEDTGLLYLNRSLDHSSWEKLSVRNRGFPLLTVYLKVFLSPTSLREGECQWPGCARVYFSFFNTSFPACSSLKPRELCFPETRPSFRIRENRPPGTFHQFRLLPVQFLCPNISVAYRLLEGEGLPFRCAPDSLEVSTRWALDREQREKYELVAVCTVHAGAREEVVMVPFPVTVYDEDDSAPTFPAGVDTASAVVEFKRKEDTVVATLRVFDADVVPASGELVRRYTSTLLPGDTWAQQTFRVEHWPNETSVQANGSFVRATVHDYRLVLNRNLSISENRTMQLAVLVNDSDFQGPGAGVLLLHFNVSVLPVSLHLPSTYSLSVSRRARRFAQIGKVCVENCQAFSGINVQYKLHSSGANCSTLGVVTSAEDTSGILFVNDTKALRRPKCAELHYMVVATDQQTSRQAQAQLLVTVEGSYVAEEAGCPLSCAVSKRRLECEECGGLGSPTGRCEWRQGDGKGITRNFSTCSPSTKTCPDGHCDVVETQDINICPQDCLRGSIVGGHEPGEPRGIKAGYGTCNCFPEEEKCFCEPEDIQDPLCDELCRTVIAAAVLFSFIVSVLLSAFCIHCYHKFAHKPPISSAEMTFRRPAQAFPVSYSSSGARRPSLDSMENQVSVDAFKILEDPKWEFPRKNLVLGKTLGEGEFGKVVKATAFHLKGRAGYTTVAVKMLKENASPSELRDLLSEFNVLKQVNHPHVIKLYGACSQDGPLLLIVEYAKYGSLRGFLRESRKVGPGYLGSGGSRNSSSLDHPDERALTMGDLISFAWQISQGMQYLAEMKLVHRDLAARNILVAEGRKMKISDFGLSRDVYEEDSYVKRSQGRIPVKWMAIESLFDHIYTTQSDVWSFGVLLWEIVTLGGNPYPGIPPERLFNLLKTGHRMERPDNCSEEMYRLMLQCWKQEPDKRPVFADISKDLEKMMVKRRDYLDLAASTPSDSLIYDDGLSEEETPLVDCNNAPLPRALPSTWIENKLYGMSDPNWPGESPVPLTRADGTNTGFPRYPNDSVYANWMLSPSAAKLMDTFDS

CL_obs ([1]; IV, 2 mg/kg)	F [1]	AUC(0-inf) ([1]; IV, 2 mg/kg)	AUC(0-t) ([1]; IV, 2 mg/kg)	half-life ([1]; IV, 2 mg/kg)	MRT ([1]; IV, 2 mg/kg)	Vd ([1]; IV, 2 mg/kg)	AUC(0-inf) ([1]; PO, 10 mg/kg)	AUC(0-t) ([1]; PO, 10 mg/kg)	Cmax ([1]; PO, 10 mg/kg)	Tmax ([1]; PO, 10 mg/kg)	half-life ([1]; PO, 10 mg/kg)	MRT ([1]; PO, 10 mg/kg)	IC50 [4]	Compound	IC50 [3]	IC50 [5]	IC50 [6]	also measured
24.5 mL/min/kg	61.14%	1410 ng·h/mL	1330 ng·h/mL	5.52 h	6.1 h	8.53 L/kg	4110 ng·h/mL	4080 ng·h/mL	632 ng/mL	4 h	3.36 h	5.08 h		CO[C@]1(C(=O)N[C@@H](C)c2ccc(-n3cc(F)cn3)nc2)CC[C@H](c2nc(C)cc(Nc3cc(C)[nH]n3)n2)CC1 [BLU-667, reference compound]				ORR ([2]; patients with medullary thyroid carcinoma): 40%; ORR ([2]; patients with non-small cell lung cancer): 50%; overall remission rate (ORR) ([2]; tumor patients with RET fusion and mutation): 45%
8.67 mL/min/kg	11.96%	3900 ng·h/mL	3850 ng·h/mL	4.12 h	4.89 h	2.56 L/kg	2320 ng·h/mL	2300 ng·h/mL	325 ng/mL	2 h	3.26 h	6.05 h	1.98 nM	CO[C@]1(C(=O)N[C@@H](C)c2ccc(-n3cc(F)cn3)nc2)CC[C@H](c2nc(Nc3cc(C)[nH]n3)ccc2C#N)CC1 [Compound C2]	42.4 nM	16.9 nM	23.1 nM	
7.67 mL/min/kg	49.85%	4430 ng·h/mL	4390 ng·h/mL	4.19 h	3.74 h	1.7 L/kg	11000 ng·h/mL	10900 ng·h/mL	2460 ng/mL	2 h	3.18 h	4.3 h	1.02 nM	CO[C@]1(C(=O)N[C@@H](C)c2ccc(-n3cc(F)cn3)nc2)CC[C@H](c2nc(Nc3cc(C)[nH]n3)cc3cccnc32)CC1 [Compound C4]	17.3 nM	7.1 nM	9.1 nM	maximum blood drug concentration (Cmax) increased compared with the control compound [1, 7]: 3-4 times; plasma exposure amount AUC increased compared with the control compound [1, 7]: 2-3 times

— patent US12629358B2, “Compound used as RET kinase inhibitor and application thereof” (TYK MEDICINES, INC., priority 2019, dated 2026)
